Assay results from PMC6370995, “Phase I study of PF‐04895162, a Kv7 channel opener, reveals unexpected hepatotoxicity in healthy subjects, but not rats or monkeys: clinical evidence of disrupted bile acid homeostasis” (Pharmacology Research & Perspectives, 2019).
Where two headings read alike, the source gives them in different places.

What was measured:
BSEP = biological target: T1, BSEP (Homo sapiens, UniProt O95342); test: BSEP inhibition in vesicles using tritium labeled taurocholic acid; format: biochemical
T1 construct: host or cells: Hi5 insect cell membrane vesicles
T1 sequence (O95342 whole entry): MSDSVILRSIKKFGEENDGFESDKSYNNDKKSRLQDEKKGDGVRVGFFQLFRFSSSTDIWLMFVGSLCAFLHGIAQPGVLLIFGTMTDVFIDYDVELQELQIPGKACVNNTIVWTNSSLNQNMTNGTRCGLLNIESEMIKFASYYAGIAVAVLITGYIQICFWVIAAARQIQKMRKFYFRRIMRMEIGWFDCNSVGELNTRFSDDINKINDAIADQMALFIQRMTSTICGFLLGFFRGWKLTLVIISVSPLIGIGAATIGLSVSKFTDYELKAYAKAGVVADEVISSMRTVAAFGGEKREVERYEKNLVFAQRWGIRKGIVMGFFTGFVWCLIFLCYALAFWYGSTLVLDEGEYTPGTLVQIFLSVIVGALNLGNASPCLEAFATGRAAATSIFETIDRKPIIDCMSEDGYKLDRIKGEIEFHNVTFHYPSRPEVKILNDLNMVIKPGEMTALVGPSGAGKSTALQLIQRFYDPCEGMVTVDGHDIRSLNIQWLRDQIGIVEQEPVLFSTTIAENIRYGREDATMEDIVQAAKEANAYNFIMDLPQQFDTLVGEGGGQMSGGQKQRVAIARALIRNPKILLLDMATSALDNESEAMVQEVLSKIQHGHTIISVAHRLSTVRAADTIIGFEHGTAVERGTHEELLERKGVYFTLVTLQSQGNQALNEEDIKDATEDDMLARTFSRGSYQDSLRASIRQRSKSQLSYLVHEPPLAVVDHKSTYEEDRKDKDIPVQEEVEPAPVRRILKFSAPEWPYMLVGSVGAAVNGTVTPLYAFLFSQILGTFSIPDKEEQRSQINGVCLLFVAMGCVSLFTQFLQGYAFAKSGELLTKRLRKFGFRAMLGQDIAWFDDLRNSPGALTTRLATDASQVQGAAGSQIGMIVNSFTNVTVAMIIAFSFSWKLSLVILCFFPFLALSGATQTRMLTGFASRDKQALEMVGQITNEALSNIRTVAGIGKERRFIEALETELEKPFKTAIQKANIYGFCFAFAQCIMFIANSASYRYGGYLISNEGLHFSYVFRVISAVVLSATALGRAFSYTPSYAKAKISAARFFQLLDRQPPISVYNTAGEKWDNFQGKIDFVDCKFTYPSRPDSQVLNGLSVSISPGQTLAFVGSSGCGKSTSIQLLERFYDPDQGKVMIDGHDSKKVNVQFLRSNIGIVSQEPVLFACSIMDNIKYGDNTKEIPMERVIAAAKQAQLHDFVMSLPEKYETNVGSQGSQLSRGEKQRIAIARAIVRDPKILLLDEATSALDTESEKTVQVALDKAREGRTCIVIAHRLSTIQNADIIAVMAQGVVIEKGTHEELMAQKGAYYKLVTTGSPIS
Text: […]

[1] = 6-Month Oral Toxicity Study in Sprague Dawley Rats; format: in vivo, rat; conditions: Sprague-Dawley, rat, plasma, oral
Method: (§1) In the longer-term studies Sprague-Dawley rats were administered PF-04895162 once daily for 28 days or 6 months at doses up to 100 mg/kg/day. […] The drug was well absorbed into the systemic circulation of male and female rats following oral administration for 6 months.

Sprague-Dawley rats [2] = test: 6-Month Oral Toxicity Study in Sprague Dawley Rats; format: in vivo, rat
Method: as §1

healthy subjects = conditions: cited from earlier work; for subjects with mild/moderate transaminase elevations: ref Pfizer data on file
[3] = ADME of single oral dose of 14C-labeled parent in male rats; format: in vivo, rat; conditions: single oral dose (target 15 mg/kg) 14C-labeled
Text: A summary of liver effects along with a detailed synopsis of each nonclinical study that was used to support the Investigational New Drug Application filing along with longer term studies can be found in the supplemental information associated with this article. In brief, this compound advanced into clinical studies without any histopathological evidence of liver injury or reproducible transaminase elevations in rats and monkeys. The addition of total bile acid analysis in nonclinical safety assessment studies, although germane to this investigation retrospectively, is not routine.26 Absorption, distribution, metabolism, and excretion of parent and metabolites were examined in albino and pigmented male rats after administration of a single oral dose (target 15 mg/kg) of ^14C‐labeled parent. Elimination of radioactivity occurred mostly within the first 24 hours after dosing with approximately 71 and 22% of the administered dose excreted in feces and urine, respectively. An equivalent human study was not performed.

MDR3 = biological target: T2, MDR3 (Homo sapiens, UniProt P21439); test: MDR3 inhibition/activation in human hepatocytes (d9-choline to d9-phosphatidylcholine); format: cell-based; conditions: 200 μmol/L, N = 3
T2 construct: biotransformation of d 9‐choline to d 9‐phosphatidylcholine in human hepatocytes; host or cells: human hepatocytes
T2 sequence (P21439 whole entry): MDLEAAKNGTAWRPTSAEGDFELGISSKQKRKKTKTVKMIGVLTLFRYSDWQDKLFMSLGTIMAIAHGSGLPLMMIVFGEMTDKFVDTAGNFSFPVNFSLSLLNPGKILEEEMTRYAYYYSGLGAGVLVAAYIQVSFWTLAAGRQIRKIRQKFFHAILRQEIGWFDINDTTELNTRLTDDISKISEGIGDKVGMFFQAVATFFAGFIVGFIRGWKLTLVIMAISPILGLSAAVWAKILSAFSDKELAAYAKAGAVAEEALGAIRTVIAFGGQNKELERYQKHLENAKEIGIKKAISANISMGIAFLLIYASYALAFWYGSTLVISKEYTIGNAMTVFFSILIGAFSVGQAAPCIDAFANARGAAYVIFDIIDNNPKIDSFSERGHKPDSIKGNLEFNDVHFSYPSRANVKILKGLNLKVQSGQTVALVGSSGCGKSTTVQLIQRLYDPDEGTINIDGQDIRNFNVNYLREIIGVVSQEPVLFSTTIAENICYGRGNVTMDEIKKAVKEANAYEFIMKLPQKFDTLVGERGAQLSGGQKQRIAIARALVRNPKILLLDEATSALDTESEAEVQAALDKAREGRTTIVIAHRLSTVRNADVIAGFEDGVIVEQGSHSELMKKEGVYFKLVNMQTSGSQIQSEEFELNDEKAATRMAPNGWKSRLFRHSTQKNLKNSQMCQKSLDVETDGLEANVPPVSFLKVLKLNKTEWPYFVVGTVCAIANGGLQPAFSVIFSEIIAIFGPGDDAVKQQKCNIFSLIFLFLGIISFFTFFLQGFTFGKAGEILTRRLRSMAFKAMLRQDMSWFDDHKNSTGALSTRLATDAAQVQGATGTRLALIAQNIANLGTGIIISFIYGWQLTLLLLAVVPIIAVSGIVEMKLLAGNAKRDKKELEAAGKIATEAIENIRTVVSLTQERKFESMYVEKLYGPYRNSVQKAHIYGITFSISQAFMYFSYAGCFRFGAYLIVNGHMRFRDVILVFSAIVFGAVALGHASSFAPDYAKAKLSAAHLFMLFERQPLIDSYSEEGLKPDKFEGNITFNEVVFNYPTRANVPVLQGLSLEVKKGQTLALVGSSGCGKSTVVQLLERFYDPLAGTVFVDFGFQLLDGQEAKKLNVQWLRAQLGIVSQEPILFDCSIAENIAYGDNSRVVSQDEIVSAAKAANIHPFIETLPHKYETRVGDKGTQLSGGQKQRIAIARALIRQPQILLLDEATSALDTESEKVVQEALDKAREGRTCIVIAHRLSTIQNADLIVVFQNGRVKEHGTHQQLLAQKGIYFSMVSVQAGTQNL
Text: […]

[4] = 9-Month Oral Toxicity Study in Cynomolgus Monkeys; format: in vivo, cynomolgus monkey; conditions: cynomolgus monkey, plasma, oral, 100 mg/kg/day
Method: (§2) A 28-day nasogastric toxicity study was conducted in cynomolgus monkeys at up to 100 mg/kg/day and a 9-month oral toxicity study with a 3-month interim sacrifice was conducted in cynomolgus monkeys at up to 100 mg/kg/day.

cynomolgus monkeys [5] = test: 9-Month Oral Toxicity Study in Cynomolgus Monkeys; format: in vivo, cynomolgus monkey
Method: as §2

cynomolgus monkeys [6] = test: Escalating Dose Range-Finding and Maximum Tolerated Dose Study in Cynomolgus Monkeys; format: in vivo, cynomolgus monkey
Sprague-Dawley rats [7] = test: 28-day Oral Gavage Toxicity and Toxicokinetic Study in Rats; format: in vivo
Method: as §1

NTCP = biological target: T3, NTCP (Homo sapiens, UniProt Q14973); test: NTCP uptake of tritium labeled TCA in CHO cells; format: cell-based; conditions: at 250 μmol/L
T3 construct: host or cells: CHO cells
T3 sequence (Q14973 1-349): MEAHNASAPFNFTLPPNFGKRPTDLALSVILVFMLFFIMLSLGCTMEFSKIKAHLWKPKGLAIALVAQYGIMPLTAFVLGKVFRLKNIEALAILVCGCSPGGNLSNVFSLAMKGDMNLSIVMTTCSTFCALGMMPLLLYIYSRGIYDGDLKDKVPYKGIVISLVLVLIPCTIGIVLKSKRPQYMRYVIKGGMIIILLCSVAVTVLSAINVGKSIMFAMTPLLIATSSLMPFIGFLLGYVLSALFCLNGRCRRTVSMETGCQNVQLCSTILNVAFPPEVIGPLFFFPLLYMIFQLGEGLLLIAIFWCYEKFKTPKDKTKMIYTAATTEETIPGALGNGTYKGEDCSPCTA
Text: […]

O=C(Cc1ccc(F)cc1)Nn1c(C2CC2)nc2cc(F)ccc2c1=O [PF‐04895162, N‐(2‐cyclopropyl‐7‐fluoro‐4‐oxoquinazolin‐3(4H)‐yl)‐2‐(4‐fluorophenyl)ethanamide]
IC50 (BSEP; Hi5 vesicles, N = 4, geometric mean): 106 µM
ratio of systemic Cmax to BSEP vesicle IC50 (BSEP; initially (single dose)): 0.12 x
Cmax ([1]; both sexes, 100 mg/kg/day, studies >1 month in duration, read-out: total Cmax concentrations in the rat (male-female)): 6.9 to 15.1 µM
Cmax ([1]; female, Day 1, 100 mg/kg/day, read-out: Total Cmax, female rats): 5350 ng/mL
Cmax ([1]; male, Day 1, 100 mg/kg/day, read-out: Total Cmax, male rats): 2460 ng/mL
liver weights (Sprague-Dawley rats [2]; 6 months, up to 100 mg/kg/day): Increased liver weights
deaths (Sprague-Dawley rats [2]; 10, 30 and 100 mg/kg/day, 6 months): no test-article related deaths
accumulation of parent drug / induction of drug metabolizing enzymes (Sprague-Dawley rats [2]; by the end of the 6 month study): no evidence of accumulation of parent drug or any apparent induction of drug metabolizing enzymes
Microscopic changes in liver (Sprague-Dawley rats [2]; females at 30 mg/kg/day and males and females at 100 mg/kg/day for 6 months): centrilobular hypertrophy
body temperature (Sprague-Dawley rats [2]; females only, Days 1 and 91 at 30 and 100 mg/kg/day): mild decrease in body temperature
Mean food consumption (Sprague-Dawley rats [2]; males and females at 100 mg/kg/day, entire 6-month period): less compared to controls
clinical chemistry changes (Sprague-Dawley rats [2]; males and/or females at 30 and/or 100 mg/kg/day): higher phosphorus, potassium, bilirubin, and cholesterol values and lower chloride and glucose levels
Mean body weights (Sprague-Dawley rats [2]; males at 30 and 100 mg/kg/day, females at 100 mg/kg/day): lower compared to controls
transaminases (Sprague-Dawley rats [2]; once daily for 6 months, up to 100 mg/kg/day): No transaminase elevations
subjects with mild/moderate transaminase elevations (healthy subjects; 250 mg BID for 7 days): one of 12 subjects
subjects with mild/moderate transaminase elevations (healthy subjects; 300 mg BID for 7 days): one of 12 subjects
liver injury in healthy subjects (healthy subjects; multiple doses up to 200 mg BID for 7 days): No evidence of liver injury
liver injury in healthy subjects (healthy subjects; single dose studies up to 600 mg): No evidence of liver injury
administered dose excreted in feces [3]: approximately 71%
administered dose excreted in urine [3]: ~22%
effect on MDR3 activity (MDR3): stimulation
Cmax ([4]; both sexes, after 9 months, males and females, read-out: total Cmax): ~29000 ng/mL
Cmax ([4]; studies >1 month in duration, read-out: total Cmax concentrations in the monkey): 81.6 µM
hematology, coagulation, clinical chemistry, macroscopic and microscopic pathology (cynomolgus monkeys [5]; 9 months, up to 100 mg/kg/day): No effect of treatment
body weights, body temperatures, hematology, coagulation, clinical chemistry, ophthalmoscopic, electrocardiographic examinations (cynomolgus monkeys [5]; 10, 30 and 100 mg/kg/day): No effect of treatment
liver weights (cynomolgus monkeys [5]; males at 30 and 100 mg/kg/day, females at 100 mg/kg/day, after 9 months): increases in liver weights
mortality (cynomolgus monkeys [5]; one female at 100 mg/kg/day): found dead on Day 45
clinical findings (cynomolgus monkeys [5]; sporadically in a few males and females at 100 mg/kg/day): Gross tremors and distended abdomens
gross findings at necropsy, organ weights, liver histopathology, Dosing Phase 1 (cynomolgus monkeys [6]; 25, 50, 100 and 200 mg/kg): no other apparent effects of treatment
clinical signs, Dosing Phase 2 (cynomolgus monkeys [6]; morning following dosing at 200 mg/kg/day, all 4 treated monkeys): hyperactivity, ataxia, tremors, and dilated pupils
clinical observation, Dosing Phase 1 (cynomolgus monkeys [6]; single escalating NG doses, most prevalently at 100 and 200 mg/kg): Post-dosing vomitus
few feces, incidence (Sprague-Dawley rats [7]; 100 mg/kg, females): 6/15
head tremors, incidence (Sprague-Dawley rats [7]; 100 mg/kg, females): 2/15
rough haircoat, incidence (Sprague-Dawley rats [7]; 100 mg/kg, females): 4/15
clear oral discharge, incidence (Sprague-Dawley rats [7]; 100 mg/kg, males): 2/15
microscopic findings in the liver (Sprague-Dawley rats [7]; 100 mg/kg/day for 28 days): No treatment-related microscopic findings
body temperature (Sprague-Dawley rats [7]; 3, 30, 100 mg/kg, 28 days): no apparent treatment-related effect
clinical pathology data (Sprague-Dawley rats [7]; 3, 30, 100 mg/kg, 28 days): no apparent treatment-related effects
gross pathology and mean organ weights (Sprague-Dawley rats [7]; 3, 30, 100 mg/kg, 28 days): no obvious treatment-related gross pathology findings or mean organ weight changes
mortality (Sprague-Dawley rats [7]; 3, 30, 100 mg/kg, 28 days): no mortality
liver weights (Sprague-Dawley rats [7]; 28 days, up to 100 mg/kg/day): Increased liver weights
Day 28 mean body weight (Sprague-Dawley rats [7]; females, 3 mg/kg): 101 % of control
Weeks 1-4 food consumption (Sprague-Dawley rats [7]; females, 3 mg/kg): 101 % of control
Mean liver weight (Sprague-Dawley rats [7]; females, 3 mg/kg (cell cut, unit not shown)): 111
Day 28 mean body weight (Sprague-Dawley rats [7]; females, 30 mg/kg): 97 % of control
Weeks 1-4 food consumption (Sprague-Dawley rats [7]; females, 30 mg/kg): 97 % of control
Mean liver weight (Sprague-Dawley rats [7]; females, 30 mg/kg (cell cut, unit not shown)): 106
Day 28 mean body weight (Sprague-Dawley rats [7]; females, 100 mg/kg): 95 % of control
Weeks 1-4 food consumption (Sprague-Dawley rats [7]; females, 100 mg/kg): 88 % of control
Day 28 mean body weight (Sprague-Dawley rats [7]; males, 3 mg/kg): 100 % of the mean control weight
Weeks 1-4 food consumption (Sprague-Dawley rats [7]; males, 3 mg/kg): 99 % of the mean control food consumption
Day 28 mean body weight (Sprague-Dawley rats [7]; males, 30 mg/kg): 92 % of the mean control weight
Weeks 1-4 food consumption (Sprague-Dawley rats [7]; males, 30 mg/kg): 95 % of the mean control food consumption
Day 28 mean body weight (Sprague-Dawley rats [7]; males, 100 mg/kg): 90 % of the mean control weight
Weeks 1-4 food consumption (Sprague-Dawley rats [7]; males, 100 mg/kg): 87 % of the mean control food consumption
transaminases (Sprague-Dawley rats [7]; once daily for 28 days, up to 100 mg/kg/day): No transaminase elevations
inhibition at 250 µM (NTCP): 30%
